One assay deals with islets. The following applies: reported in the literature; cited from earlier work.
The conditions of assay [1]: reported in the literature; cited from earlier work.
Assay [2] concerns pancreatic islets. In words: Islet viability, Live/Dead assay. The following applies: day 7; glutamine 10 mM. It counts as cell-based, C57BL/6 mice. As to the method:
(§1) All mice within this study were treated in accordance with the guidelines approved by the Institutional Animal Care and Use Committee (IACUC) at Stanford University. Animals were housed under conventional conditions having access to food and water ad libitum. Pancreatic islets were isolated from C57BL/6 mice (male, 6-8-week-old, Charles River Laboratories, USA), as previously described.^9 In brief, the common bile duct was cannulated with a 30G needle and the pancreas distended with 3 mL of cold collagenase solution (Fischer Scientific, USA). The pancreas was removed and islets isolated by digesting the pancreas at 37° C. for 10 min. The islets were purified using histopaque-density gradients. […]
After 7 days of incubation with PDG-MSNPs, the viability of islets was assessed using Live/Dead and 3-(4,5-Dimethylthiazol-2-yl)-2,5-diphenyltetrazolium bromide (MTT) assays. Islets were labeled using fluorescein diacetate (FDA; for live cells (green fluorescence), Thermo Fisher Scientific, USA) and propidium iodide (PI; for dead cells (red fluorescence), Thermo Fisher Scientific, USA) as the Live/Dead staining solution. […] A minimum of 8 islets per experimental group were analyzed using Image-J/FIJI to quantify live and dead fluorescence within islets and the percentage of live islet were presented.

For assay [3], the system named is pancreatic islets. As to the kind of experiment: Islet function, GSIS assay (insulin secretion). It counts as cell-based, C57BL/6 mice. The following applies: 7 days; glutamine 10 mM; 16.7 mM glucose. On the procedure: as §1
Islets supplemented with PDG-MSNPs were cultured in a humidified incubator under normal conditions (37° C./5% CO2/20% O2). After 7 days of incubation with PDG-MSNPs, the ability of islets to secrete insulin was assessed by exposing them to low glucose (i.e. basal conditions) and high glucose (i.e. stimulated conditions) media (200 μL/well). […] The supernatants were collected at the end of incubation for both basal and stimulated condition and insulin levels were quantified using a mouse insulin ELISA kit (Mercodia Developing Diagnostics, USA). […]

In assay [4] the test system is diabetic mice transplanted with islets. In words: Islet transplantation under kidney capsule of STZ diabetic mice, metabolic analysis. It counts as in vivo, C57BL/6 mice.

We go through eleven compounds from patent US12558334B2, “Controlled nutrient delivery to pancreatic islets using a novel mesoporous silica-based nanoparticle platform” (The Board of Trustees of the Leland Stanford Junior …, priority 2019, dated 2026).

Take `CC(C)C[C@H](N)C(=O)O` [Leucine]: in the assay on islets, the “Cyto-protective effects on islets” value is “Yes”, the Decreased inflammation result was “No”, the Enhanced islet function entry was “Yes” and the Enhanced islet survival entry is reported as “No”.

On to `O=C(O)[C@@H]1CCCN1` [Proline], for which, in assay [1], the “Maintained function of various organs” value is listed as “No”. In the assay on islets, the “Cyto-protective effects on islets” value is reported as “No”, the Decreased inflammation entry is listed as “No”, the Enhanced islet function result is reported as “Yes” and the Enhanced islet survival result was “No”.

In the case of `C[C@H](N)C(=O)O` [Alanine], the “Maintained function of various organs” value in assay [1] was “No”. Moreover, in the assay with islets, the “Cyto-protective effects on islets” value is given as “No”, the Decreased inflammation result was “No”, the Enhanced islet function result is listed as “Yes” and the Enhanced islet survival result is listed as “Yes”.

`N=C(N)NCCC[C@H](N)C(=O)O` [Arginine]: the “Maintained function of various organs” value in assay [1] is on record as “No”. In the assay on islets, the “Cyto-protective effects on islets” value was “No”, the Decreased inflammation result was “No”, the Enhanced islet function entry is “Yes” and the Enhanced islet survival result is on record as “No”.

As for `N[C@@H](Cc1c[nH]c2ccccc12)C(=O)O` [Tryptophan], the “Maintained function of various organs” value in assay [1] is “No”. In the assay on islets, the “Cyto-protective effects on islets” value is listed as “No”, the Decreased inflammation entry is “No”, the Enhanced islet function result is “Yes” and the Enhanced islet survival result is given as “Yes”.

Turning to `CSCC[C@H](N)C(=O)O` [Methionine], the “Maintained function of various organs” value in assay [1] is reported as “No”. In addition, in the assay on islets, the “Cyto-protective effects on islets” value was “No”, the Decreased inflammation result is “No”, the Enhanced islet function entry is given as “No” and the Enhanced islet survival entry is listed as “No”.

In the case of `CC[C@H](C)[C@H](N)C(=O)O` [Isoleucine], the “Maintained function of various organs” value in assay [1] is recorded as “No”. Moreover, in the assay on islets, the “Cyto-protective effects on islets” value is given as “No”, the Decreased inflammation entry is reported as “No”, the Enhanced islet function result is “Yes” and the Enhanced islet survival result was “No”.

For the compound `NC(=O)CC[C@H](N)C(=O)O` [Glutamine, glutamine], the “islet viability (Live/Dead)” value in the assay with pancreatic islets [2] turned out to be 77.1±2.6%. In the assay with islets, the “Cyto-protective effects on islets” value is reported as “Yes”, the Decreased inflammation result is reported as “Yes”, the Enhanced islet function result is recorded as “Yes” and the Enhanced islet survival result is given as “Yes”. In the assay on pancreatic islets [3], the “insulin secretion following stimulation with high glucose medium” value came to 8.1 ± 0.3 ng/mL. Also, the “non-fasting blood glucose level (BGL)” value in assay [4] (day 30 post-transplantation) was found to be 337 ± 84 mg/dL. Also, in assay [4] (fasting IPGTT), the “AUC0-20 min of IPGTT” value came out at 26935 ± 1347 mg·min/dL. For the same compound, in assay [4] (fasting IPGTT, glucose 2 g/kg i.p., peak at 30 min), the “IPGTT peak incremental value following glucose injection” value came to 238 ± 12 mg/dL. The compound also displayed a body weight in assay [4] (week 4) of 20.7 ± 0.9 g.

As for `N[C@@H](CS)C(=O)O` [Cysteine], in assay [1], the “Maintained function of various organs” value is on record as “No”. Besides, in the assay on islets, the “Cyto-protective effects on islets” value is reported as “Yes”, the Decreased inflammation result is “No”, the Enhanced islet function entry is listed as “No” and the Enhanced islet survival entry was “No”.

As to `N[C@@H](CCS)C(=O)O` [Homocysteine], in assay [1], the “Maintained function of various organs” value is “No”. Also, in the assay with islets, the “Cyto-protective effects on islets” value is recorded as “No”, the Decreased inflammation result is given as “No”, the Enhanced islet function result was “No” and the Enhanced islet survival entry was “No”.

On to `NCCCC[C@H](N)C(=O)O` [Lysine], for which, in assay [1], the “Maintained function of various organs” value is listed as “No”. Further, in the assay with islets, the “Cyto-protective effects on islets” value was “No”, the Decreased inflammation result is “No”, the Enhanced islet function entry is given as “Yes” and the Enhanced islet survival result was “No”.
